According to patent US10203334B2, “Methods and compositions related to nucleic acid binding assays” (Nubad, LLC, priority 2012, dated 2019):

Legend:
DNA d(G4C4) [1] = assay: Displacement of F-neo (42a) from GC DNA, 96-well; assay type: binding; details: one molar equivalent; FIG. 15
From the text: The HTS by the displacement of a fluorescene-neomycin (F-neo (42a)) bound from a synthetic DNA sequence eight bases long designed to conform to A-form DNA by the synthetic molecule neomycin-anthraquinone (67) using a 96 well plate format and a fluorescent plate reader is disclosed.
The high throughput screening (HTS) has been designed to determine the binding of drugs to the target sequence d(G4C4). The target is predicted to exist predominately in the A-form conformation of DNA. This HTS involves the displacement of a fluorescene-neomycin (F-neo (42a)) by DNA binding molecules in a 96 well plate format using a fluorescent plate reader. […] The quality of the assay was determined by the calculation of a Z′-factor using equation 1 for the displacement of F-neo (42a) from the DNA by neomycin-anthraquinone 67. The final assay results were obtained using the average (μn) and standard deviation (σn) from 36 wells of 0.1 μM F-neo (42a)/DNA d(G4C4) as the negative control and from the average (μp) and standard deviation (σp) 36 wells of 0.1 μM F-neo (42a)/DNA d(G4C4) mixed with 0.3 μM neomycin-anthraquinone 67 as the positive control.
Upon binding to the DNA the fluorescence of F-neo (42a) is quenched. […] This increase is not observed with the addition of the minor groove binding compound 59, in which the change in the fluorescence observed is approximately the same as that of the DMSO control.

DNA d(G4C4) [2] = assay: Displacement of TO-neo (36a) from GC DNA, 96-well; assay type: binding; details: FIG. 14
From the text: The HTS by the displacement of a thiazole-neomycin (TO-neo (36a)) bound from a synthetic DNA sequence eight bases long designed to conform to A-form DNA by the synthetic molecule neomycin-anthraquinone 67 using a 96 well plate format and a fluorescent plate reader was disclosed herein.
The high throughput screening (HTS) has been designed to determine the binding of drugs to the target sequence d(G4C4). The target is predicted to exist predominately in the A-form conformation of DNA. This HTS involves the displacement of a TO-neo (36a) molecule by DNA binding molecules in a 96 well plate format using a fluorescent plate reader. […] The quality of the assay was determined by the calculation of a Z′-factor using equation 1 for the displacement of TO-neo (36a) from the DNA by a neomycin-anthraquinone 67 conjugate. […]
The fluorescence of the probe decrease approximately 60% with the addition of the neomycin-anthraquinone 67, a synthetic molecule predicted to bind in the major groove. However, with the addition of the minor groove binding compound 59, the change in fluorescence is less than 10%. The change in the fluorescence observed upon the addition of the compound 59 is approximately the same as that observed in the DMSO control.

bacterial A-site oligos = details: cited from earlier work
[3] = system: E. coli ribosomal A-site oligonucleotide (SEQ ID No. 1); assay: 96-well F-neo displacement HTS on ribosomal A-site; assay type: binding; details: 0.30 mM F-neo, 0.3 mM A-site oligonucleotide, 1.0 mM neomycin
From the text: [drawing 24] where FHNeo represents the protonated form of F-neo. F(-)Neo, upon binding to nucleic acids such as DNA or RNA, is destabilized by the nucleic acid backbone negative potential, shifting the equilibrium towards FH, making F-neo a weaker acid, raising the pKa, which is what we observe upon binding to the A-site. For the A-site targeted assay, we calculated the Z' factor (Z=1-3(2.7+2.8)/(414-267)=0.89. […] Provided is a detailed example for the development of a HTS by the displacement of a fluorescene-neomycin (F-neo (42a)) from rRNA A-site oligonucleotide (SEQ ID No. 1) using a 96 well plate format and a fluorescent plate reader. […] This HTS involves the displacement of a fluorescene-neomycin (F-neo (42a)) by potential RNA binding molecules in a 96 well plate format using a fluorescent plate reader. […] F-neo based RNA binding assays have been performed using a fluorescence spectrophotometer with a 96-well plate reader and results recorded in FIG. 4. […] Fo is defined as the baseline fluorescence intensity of the RNA/F-neo complex and F is the intensity with added drug. The difference between the fluorescence intensity baseline of F-neo/A-site complex and complex with added drug (F-Fo) indicates the extent of the competition of drug for the binding site, this allows the relative binding affinities of aminoglycosides to be established. […]

TAR RNA = details: read-out: IC50 for inhibition of Tat peptide binding to the TAR RNA; cited from earlier work
[4] = system: dimeric form of a parallel quadruplex formed by the Tetrahymena telomere; details: cited from earlier work

| Molecule | relative binding affinities with bacterial A-site oligos (bacterial A-site oligos) | IC50 (TAR RNA) [µM] | other results |
| --- | --- | --- | --- |
| NCC1O[C@H](OC2C(O)C(OC3C(O)[C@H](N)CC(N)[C@H]3O[C@H]3OC(CN)[C@@H](O)C(O)C3N)O[C@@H]2CSCCNC(=S)NCCNC(=O)c2ccc3c(c2)C(=O)c2ccccc2C3=O)C(N)C(O)[C@@H]1O (stereo partly drawn) [neomycin-anthraquinone 67, Neomycin-Anthraquinone Conjugate] | – | – | change in fluorescence of F-neo (42a) bound to d(G4C4)2 on addition of compound (DNA d(G4C4) [1]): significant increase in the fluorescence; decrease in fluorescence of TO-neo (36a) bound to d(G4C4)2 on addition of compound (DNA d(G4C4) [2]): approximately 60% |
| neomycin | neomycin>paromomycin>ribostamycin | 0.92 ± 0.09 | effect of added drug on fluorescence of F-neo/A-site oligonucleotide complex [3]: restored the intensity to F-neo only levels; affinity [4]: nanomolar affinity |
| NC[C@H]1O[C@H](O[C@H]2[C@H](O[C@@H]3O[C@H](CO)[C@@H](O)[C@H]3O)[C@@H](O)[C@H](N)C[C@@H]2N)[C@H](N)[C@@H](O)[C@@H]1O [ribostamycin] | neomycin>paromomycin>ribostamycin | – | – |
| [H]/N=C(/N)N[C@H]1[C@H](O)[C@@H](O)[C@H](O[C@@H]2O[C@@H](C)[C@](O)(C=O)[C@H]2O[C@@H]2O[C@@H](CO)[C@H](O)[C@@H](O)[C@@H]2NC)[C@@H](N/C(N)=N\[H])[C@@H]1O [streptomycin] | – | 9.5 ± 0.8 | – |
| gentamicin | – | 45 ± 4 | – |
| CN(C)CCCNC(=O)c1cc(NC(=O)c2cc(NC(=O)c3nc(NC(=O)c4nc(NC(=O)CCCNC(=O)c5cc(NC(=O)c6cc(NC(=O)c7nc(NC(=O)c8nccn8C)cn7C)cn6C)cn5C)cn4C)cn3C)cn2C)cn1C [compound 59, reference compound] | – | – | change in fluorescence of F-neo (42a) bound to d(G4C4)2 on addition of compound (DNA d(G4C4) [1]): not displaced; decrease in fluorescence of TO-neo (36a) bound to d(G4C4)2 on addition of compound (DNA d(G4C4) [2]): less than 10% |
| NC[C@@H]1O[C@H](O[C@H]2[C@@H](O)[C@H](O[C@@H]3[C@@H](O)[C@H](N)C[C@H](N)[C@H]3O[C@H]3O[C@H](CO)[C@@H](O)[C@H](O)[C@H]3N)O[C@@H]2CO)[C@H](N)[C@@H](O)[C@@H]1O [paromomycin] | neomycin>paromomycin>ribostamycin | – | – |
